How the values were obtained:
[1] = Solubility of test compounds in assay buffer; assay type: physicochemical; conditions: Tris assay buffer, pH 7.5, aqueous buffer; 50 mM Tris, 50 mM KCl, 5 mM TCEP, pH 7.50
[2] = target: T1, bovine msrA (Bos taurus, UniProt P54149); assay: Methionine sulfoxide reductase assay by isothermal titration calorimetry (kcat, KM); assay type: biochemical; conditions: substrate for msrA; 300 nM enzyme, pH 7.50, 37° C
T1 construct: made in house; host or cells: E. coli
T1 sequence (P54149 21-233): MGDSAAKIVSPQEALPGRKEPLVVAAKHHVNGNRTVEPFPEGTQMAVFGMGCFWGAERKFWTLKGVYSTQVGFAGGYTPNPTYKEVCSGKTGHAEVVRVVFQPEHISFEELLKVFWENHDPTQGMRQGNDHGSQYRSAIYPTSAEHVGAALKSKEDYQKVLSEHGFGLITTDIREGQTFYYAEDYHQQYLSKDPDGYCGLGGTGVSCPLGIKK
Procedure: (§1) The compounds of the present invention may be assayed for activity both in vitro and in vivo. For example, in order to assay whether a compound of this invention will serve as a regenerable Msr substrate, the compound is titrated in several increments into a solution of the enzyme msrA (pH 7.5, 37 °C, reducing buffer) contained in a microcalorimeter. The heat (ΔH) from the reaction is measured at each step. These power output levels are converted into rates of reaction according to Todd & Gomez, Anal. Biochem., 296, pp. 1-9 (2001), and the resulting rates are plotted versus substrate concentration. From this plot, the kcat and KM are determined according to standard Michaelis-Menton enzyme kinetics.
An assay using isothermal titration calorimetry was developed. […] The quicker such compounds are converted back to their reduced form by MSR, the more equivalents of ROS they will eliminate before being cleared from the body. The assay was used to determine the enzymatic parameters (kcat and KM) of the compounds of this invention interacting with msrA under standard conditions. Chemical modifications that increase kcat, a measure of how quickly a compound was turned over by the enzyme, and/or decrease its KM, a measure of how readily a compound bound to the enzyme, represent improvements in that compound's ability to be efficiently processed by msrA.
In order to run the assay bovine msrA was overexpressed in E. coli and purified according to the method described in Lowther et al., Proc. Natl. Acad. Sci. USA, 97, pp. 6463-6468 (2000), the disclosure of which is herein incorporated by reference. A 300 nM solution of the enzyme was prepared in 50 mM Tris, 50 mM KCl, 4 mM tris(carboxyethyl)phosphine (TCEP), pH 7.50. A 25 mM solution of the compound to be tested was prepared in the identical buffer. A 1.8 ml aliquot of the msrA enzyme solution was loaded into the cell of a VP-ITC instrument from Microcal Corp. (Northampton, Mass.). The test compound solution was loaded into the syringe, and the entire system was allowed to come to thermal equilibrium at 37° C. while stirring at a rate of 300 rpm. Once equilibrium was established, a series of small injections ([…]) of the compound into the protein solution were made, and the increasing power output of the enzyme was measured after each injection, relative to the instrument baseline. These power output levels were converted into rates of reaction, according to Todd & Gomez, Anal. Biochem., 296, pp. 1-9 (2001), the disclosure of which is herein incorporated, and the resulting rates were plotted against substrate concentration. From this plot, the kcat and KM were determined with a computer fitting routine according to standard Michaelis-Menton enzyme kinetics.
To ensure that the compounds would be substrates for MSR, we determined the substrate specificities of MSR by choosing test compounds that contained a sulfoxide moiety and testing those compounds for MSR activity in the enzyme assay described below. Table 1 sets forth compounds that were tested for their ability to serve as MSR substrates using the isothermal titration calorimetry assay described above: […]

[3] = target: T2, msrA (Bos taurus, UniProt P54149); assay: Calorimetric test of whether a compound is turned over by msrA (protein injected into compound solution); assay type: biochemical, bovine; conditions: compound at 500 μM or as high as possible, three injections of msrA, heat evolved
T2 construct: made in house; host or cells: E. coli
T2 sequence (P54149 21-233): T1 sequence (P54149 21-233)
Procedure: Compounds 105-108 in the list were only soluble below 1 mM. However, an assessment was made as to whether those compounds were substrates for msrA (i.e., whether they are turned over by the enzyme), by employing the following experimental protocol. The compounds were dissolved in the usual buffer [50 mM Tris, 50 mM KCl, 5 mM TCEP, pH 7.50] at a concentration of 500 μM, or as high as possible. 1.8 ml of this solution was loaded into the calorimetric cell, while the syringe was filled with a […] solution of msrA in the same buffer. After the stirring and equilibration period has elapsed, three injections of protein were made, spaced out over 20 minute intervals. If the compound is a substrate for msrA, a large amount of heat will be evolved after the first injection (several millicalories generated over ˜10 minutes), while the other two injections of protein will register only small heats (tens of microcalories), before the signal quickly returns to the baseline. These smaller heats represent the heat of dilution of the protein into the solution in the calorimetric cell.
Once the substrate has been fully reacted and the heat output has returned to the baseline, further injections of protein show only the heat of dilution of the enzyme.

[4] = tested on: reactive oxygen species; conditions: systemic injection; cited from earlier work
[5] = tested on: COX-2; conditions: animal models of Parkinson's disease; cited from earlier work
[6] = substrate: CC1=C(CC(=O)O)c2cc(F)ccc2/C1=C\c1ccc([S+](C)[O-])cc1; assay: purified protein, by the assay type; conditions: other: substrate for msrA, 300 nM enzyme, pH 7.50, 37° C, pH 7.5
[7] = substrate: C[S+]([O-])CC[C@H](N)C(=O)O; assay: purified protein, by the assay type; conditions: other: substrate for msrA, 300 nM enzyme, pH 7.50, 37° C, pH 7.5
[8] = substrate: CC1=C(CC(=O)NC(CC[S+](C)[O-])C(=O)O)c2cc(F)ccc2/C1=C\c1ccc([S+](C)[O-])cc1; assay: purified protein, by the assay type; assay type: biochemical, bovine; conditions: other: substrate for msrA, 300 nM enzyme, pH 7.50, 37° C, pH 7.5
Procedure: as §1
An assay using isothermal titration calorimetry was developed. […] Chemical modifications that increase kcat, a measure of how quickly a compound was turned over by the enzyme, and/or decrease its KM, a measure of how readily a compound bound to the enzyme, represent improvements in that compound's ability to be efficiently processed by msrA. […]
To ensure that the compounds would be substrates for MSR, we determined the substrate specificities of MSR by choosing test compounds that contained a sulfoxide moiety and testing those compounds for MSR activity in the enzyme assay described below. […]

Molecule: CSc1ccc(/C=C2/C(C)=C(CC(=O)NC(CC[S+](C)[O-])C(=O)O)c3cc(F)ccc32)cc1 (centres unmarked) [compound 107]
- solubility [1]: < 1000 µM

Molecule: C[S+](C)[O-] [compound 103, DMSO]
- Kcat [2]: 0.064 s⁻¹
- Km [2]: 314 µM

Molecule: C[S+]([O-])c1ccccc1 (centres unmarked) [compound 102, methyphenylsulfoxide]
- Kcat [2]: 0.46 s⁻¹
- Km [2]: 750 µM

Molecule: CS(=O)(=O)CC[C@H](N)C(=O)O [compound 109, methionine sulfone]
- Kcat [2]: 0 s⁻¹
- substrate for msrA (turned over by the enzyme) [3]: does not get turned over by msrA
- substrate for msrA (turned over by the enzyme) ([3]; listed as methionine sulfone): not a substrate for msrA

Molecule: CC(C)(C)[N+]([O-])=Cc1ccccc1 [phenyl-N-tert-butylnitrone (PBN), phenyl-N-tert-butylnitrone]
- relief of SNL-induced mechanical allodynia [4]: relieves SNL-induced mechanical allodynia in a dose-dependent manner

Molecule: CS(=O)(=O)c1ccc(C2=C(c3ccccc3)C(=O)OC2)cc1 [Vioxx]
- partial recovery of dopamine production [5]: ~20%

Molecule: C[S+]([O-])c1ccc(-c2cc(C(=O)O)nn2-c2ccc(S(N)(=O)=O)cc2)cc1 (centres unmarked) [compound 108]
- solubility [1]: < 1000 µM

Molecule: C[S+]([O-])c1ccc(-c2cc(C(F)(F)F)nn2-c2ccc(S(N)(=O)=O)cc2)cc1 (centres unmarked) [compound 105]
- solubility [1]: < 1000 µM

Molecule: C[S+]([O-])CC[C@H](N)C(=O)O (some centres unmarked) [compound 100, methionine sulfoxide]
- substrate for msrA (turned over by the enzyme) [3]: produces the large heat output

Molecule: C[S+]([O-])c1ccc(CC(=O)O)cc1 (centres unmarked) [compound 106]
- solubility [1]: < 1000 µM

B1: bovine msrA (Bos taurus) (protein)
chain: T1 sequence (P54149 21-233)
notes: made in house; host or cells: E. coli
- Km [6]: 112 µM
- kcat [6]: 0.56 s⁻¹
- Km [7]: 504 µM
- kcat [7]: 0.27 s⁻¹
- Km [8]: 7.6 µM
- kcat [8]: 0.27 s⁻¹

From US20060014813A1, “Pharmaceutical compounds that regenerate in vivo” (priority 2003, published 2006)
